“And” between values parts separate entries of the source, which are not always exact repeats. Identical values can stand only once. Counter-ions that a name gives are not always drawn.

The values that follow come from paper PMC8865918 (Journal of medicinal chemistry, 2022).

The target in one series is T1, soluble hCD73 (Homo sapiens, UniProt P21589).
T1 sequence (P21589 27-549 limits assumed): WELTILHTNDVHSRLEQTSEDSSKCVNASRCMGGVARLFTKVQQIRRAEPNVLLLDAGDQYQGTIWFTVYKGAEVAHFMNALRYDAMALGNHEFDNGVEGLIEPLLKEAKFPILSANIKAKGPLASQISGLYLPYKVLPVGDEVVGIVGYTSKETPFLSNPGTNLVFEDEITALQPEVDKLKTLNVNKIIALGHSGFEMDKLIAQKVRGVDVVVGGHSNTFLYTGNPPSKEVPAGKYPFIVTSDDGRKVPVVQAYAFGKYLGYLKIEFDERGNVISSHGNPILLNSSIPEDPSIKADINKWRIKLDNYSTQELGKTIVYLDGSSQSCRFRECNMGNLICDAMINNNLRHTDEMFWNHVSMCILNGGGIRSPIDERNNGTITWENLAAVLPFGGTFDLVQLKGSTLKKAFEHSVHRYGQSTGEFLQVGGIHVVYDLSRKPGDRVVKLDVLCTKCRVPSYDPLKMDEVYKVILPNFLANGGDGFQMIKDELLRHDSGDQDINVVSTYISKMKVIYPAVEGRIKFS
Description: Inhibition of soluble hCD73. The format is biochemical. As to conditions: for fold increase in potency (decrease in Ki) relative to compound 9: versus N^4-benzyloxy compound 9; for fold more potent than 22: versus compound 22.

For series [1] the following is noted: 30 (6a); ref 9 (6b); cited from earlier work.
The target of series [2] is T2, tonsillar CD73 (human palatine tonsil cryosections) (Homo sapiens, UniProt P21589).
T2 sequence (P21589 27-574): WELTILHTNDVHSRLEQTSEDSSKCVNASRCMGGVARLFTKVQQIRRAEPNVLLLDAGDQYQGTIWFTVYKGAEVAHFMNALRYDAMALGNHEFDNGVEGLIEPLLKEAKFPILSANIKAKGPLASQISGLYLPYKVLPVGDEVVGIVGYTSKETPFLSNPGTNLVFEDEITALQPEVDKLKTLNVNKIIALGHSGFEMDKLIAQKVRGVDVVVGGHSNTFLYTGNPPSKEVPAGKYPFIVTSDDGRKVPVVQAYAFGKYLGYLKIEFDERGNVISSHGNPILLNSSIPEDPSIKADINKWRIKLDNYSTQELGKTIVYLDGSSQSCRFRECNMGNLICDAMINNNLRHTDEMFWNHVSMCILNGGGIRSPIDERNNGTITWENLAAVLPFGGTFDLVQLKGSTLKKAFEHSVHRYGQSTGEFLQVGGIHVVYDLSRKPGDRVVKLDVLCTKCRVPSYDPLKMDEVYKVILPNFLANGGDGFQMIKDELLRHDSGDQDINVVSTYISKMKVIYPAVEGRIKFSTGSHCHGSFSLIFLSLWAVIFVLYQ
The series is described as follows: In situ ecto-5′-nucleotidase. The format is biochemical. The settings on record: 50–250 nM inhibitor; 100 μM AMP; tonsillar germinal centers.

A further series deals with σ1 receptor (Homo sapiens, UniProt Q99720). Description: Off-target binding, Psychoactive Drug Screening Program.
The target in another series is rat soluble CD73. As to conditions: read-out: Ki ± SEM; cited from earlier work.

Sequence of σ1 receptor (Q99720 whole entry, species assumed): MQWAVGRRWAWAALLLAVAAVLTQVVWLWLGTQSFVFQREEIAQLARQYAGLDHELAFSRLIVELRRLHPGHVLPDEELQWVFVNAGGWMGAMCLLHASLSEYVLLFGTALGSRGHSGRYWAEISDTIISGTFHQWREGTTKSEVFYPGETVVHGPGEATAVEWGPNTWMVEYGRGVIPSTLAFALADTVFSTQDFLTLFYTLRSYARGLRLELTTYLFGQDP

With `CCN(CC)CC.CCN(CC)CC.Cn1c(=O)n([C@H]2[C@H](O)[C@H](O)[C@]3(COP(=O)(O)CP(=O)(O)O)C[C@H]23)cc/c1=N/OCc1ccc(Cl)cc1` [Compound 29, [({[(2R,3S,4R,5S)-4-(4-{[(4-Chlorobenzyl)oxy]imino}-3-methyl-2-oxo-3,4-dihydropyrimidin-1(2H)-yl)-2,3-dihydroxy-1λ^5-bicyclo[3.1.0]hexan-1-yl]methoxy}(hydroxy)phosphoryl)methyl]phosphonic Acid Triethylammonium Salt], at soluble hCD73 (soluble hCD73, versus compound 16), the “fold weaker inhibitor than ribose analogue 16” value is 88 fold and ~ 90 fold. Take `COC[C@](CO)(OC[C@H]1O[C@@H](n2ncc3c(NC4CCCC4)nc(Cl)nc32)[C@H](O)[C@@H]1O)P(=O)(O)O` [Compound 6b, OP-5244]: in series [1], the oral bioavailability entry was “display oral bioavailability”. Consider `CCN(CC)CC.CCN(CC)CC.Cn1c(=O)n([C@@H]2O[C@H](COP(=O)(O)CP(=O)(O)O)[C@@H](O)[C@H]2O)cc/c1=N/OCc1ccc(I)cc1` [Compound 18, N^4-(4-Iodobenzyloxy)-3-methylcytidine-5′-α,β-methylenediphosphonate Triethylammonium Salt], for which the “effect on catalytic (AMPase) activity of tonsillar CD73 in situ” value in series [2] is “decreased the catalytic activities”. For the same compound, the “fold increase in potency (decrease in Ki) relative to compound 9” value on soluble hCD73 (soluble hCD73) was ~ 20 fold and 24 fold. As for `CCN(CC)CC.CCN(CC)CC.Cn1c(=O)n([C@@H]2O[C@H](COP(=O)(O)CP(=O)(O)O)[C@@H](O)[C@H]2O)cc/c1=N/OCc1ccc(S(F)(F)(F)(F)F)cc1` [Compound 20, N^4-[4-(Pentafluorosulfanyl)benzyloxy]-3-methylcytidine-5′-α,β-methylenediphosphonate Triethylammonium Salt], in series [2], the “effect on catalytic (AMPase) activity of tonsillar CD73 in situ” value is given as “decreased the catalytic activities”. As for `CCN(CC)CC.CCN(CC)CC.Cn1c(=O)n([C@@H]2O[C@H](COP(=O)(O)CP(=O)(O)O)[C@@H](O)[C@H]2O)cc/c1=N/OCc1ccc(C(=O)NCCC(=O)O)cc1` [Compound 27, N^4-{4-[(2-Carboxyethyl)carbamoyl]benzyloxy}-3-methylcytidine-5′-α,β-methylenediphosphonate Triethylammonium Salt], the “fold more potent than 22” value on soluble hCD73 (soluble hCD73) stood at 5 fold. In the case of `CCN(CC)CC.CCN(CC)CC.O=c1ccn([C@H]2[C@H](O)[C@H](O)[C@]3(COP(=O)(O)CP(=O)(O)O)C[C@H]23)c(=O)[nH]1` [Compound 28, {[({(2R,3S,4R,5S)-4-[2,4-Dioxo-3,4-dihydropyrimidin-1(2H)-yl]-2,3-dihydroxy-1λ^5-bicyclo[3.1.0]hexan-1-yl}methoxy)(hydroxy)phosphoryl]methyl}phosphonic Acid Triethylammonium Salt], the inhibition (commonly the drop in the measured response relative to a control, in per cent) at 50 µM at soluble hCD73 amounted to 28%. On soluble hCD73 (soluble hCD73, between 0.03 nM and 50 μM), the % inhibition (usually the change of the read-out against control, counted positive when it falls) is on record as < 50%. Take `CCN(CC)CC.CCN(CC)CC.Cn1c(=O)n([C@@H]2O[C@H](COP(=O)(O)CP(=O)(O)O)[C@@H](O)[C@H]2O)cc/c1=N/OCc1ccccc1Cl` [Compound 10, N^4-(2-Chlorobenzyloxy)-3-methylcytidine-5′-α,β-methylenediphosphonate Triethylammonium Salt]: at soluble hCD73 (soluble hCD73), the “fold increase in potency (decrease in Ki) relative to compound 9” value was 6–7 fold. In the case of `CCN(CC)CC.CCN(CC)CC.CCOC(=O)CCNC(=O)c1ccc(CO/N=c2/ccn([C@@H]3O[C@H](COP(=O)(O)CP(=O)(O)O)[C@@H](O)[C@H]3O)c(=O)n2C)cc1` [Compound 26, N^4-{4-[(3-Ethoxy-3-oxopropyl)carbamoyl]benzyloxy}-3-methylcytidine-5′-α,β-methylenediphosphonate Triethylammonium Salt], on soluble hCD73 (soluble hCD73), the “fold more potent than 22” value is 5 fold. For `Cn1c(=O)n([C@@H]2O[C@H](COP(=O)(O)CP(=O)(O)O)[C@@H](O)[C@H]2O)cc/c1=N/OCc1ccc(Cl)cc1` [Compound 16, N^4-(4-Chlorobenzyloxy)-3-methylcytidine-5′-α,β-methylenediphosphonate Triethylammonium Salt], at σ1 receptor, the affinity, expressed as Ki, was 2610 ± 640 nM. In the case of `CCN(CC)CC.CCN(CC)CC.Cn1c(=O)n([C@@H]2O[C@H](COP(=O)(O)CP(=O)(O)O)[C@@H](O)[C@H]2O)cc/c1=N/OCc1ccc(C(N)=O)cc1` [Compound 23, N^4-[4-(Carbamoyl)benzyloxy]-3-methylcytidine-5′-α,β-methylenediphosphate Triethylammonium Salt], the “fold weaker than methyl ester 21” value on soluble hCD73 (soluble hCD73, versus compound 21) was 2 fold. For `CCN(CC)CC.CCN(CC)CC.Cn1c(=O)n([C@@H]2O[C@H](COP(=O)(O)CP(=O)(O)O)[C@@H](O)[C@H]2O)cc/c1=N/OCc1cccc(Cl)c1` [Compound 11, N^4-(3-Chlorobenzyloxy)-3-methylcytidine-5′-α,β-methylenediphosphonate Triethylammonium Salt], the “fold increase in potency (decrease in Ki) relative to compound 9” value on soluble hCD73 (soluble hCD73) is given as 6–7 fold. Regarding “N^4-benzyloxy-3-methylcytidine-5′-α,β-methylene-diphosphonate [Compound 9]”, the inhibition constant Ki (in general, the dissociation constant of the complex between target and ligand, obtained from inhibition or displacement) at rat soluble CD73 was 3.67 nM. As to `C[C@H](Nc1cc(Cl)nc2c1cnn2[C@@H]1O[C@H](COP(=O)(O)CP(=O)(O)O)[C@@H](O)[C@H]1O)c1ccccc1F` [Compound 6a, Quemliclustat], the oral bioavailability result in series [1] is on record as “display oral bioavailability”.
